Patent publication US12129490B2, “Methods for generating hepatocytes and cholangiocytes from pluripotent stem cells” (UNIVERSITY HEALTH NETWORK, priority 2018, dated 2024)
Values joined by “and” are separate entries in the source; they are usually repeats but may differ in a detail not shown here. Equal entries are not always repeated. Where two headings read alike, the source gives them in different places.

How the values were obtained:
[1] = system: hESC-derived hepatic aggregates
From the text: To further mature the cells, the role of cAMP signaling was investigated. Studies using hepatic cell lines have shown that activation of this pathway can induce hepatic gene expression, in part through the induction of the peroxisome proliferator-activated receptor gamma coactivator-1-alpha (PGC1-a), a coactivator that functions together with HNF4a to regulate the expression of many genes involved in hepatocyte function 25 28. […] The proportion of ALB positive cells was not reduced in spite of the fact that the levels of mRNA declined (FIG. 5b). Without being bound by theory, these differences could reflect differences in RNA vs. protein expression. Other tissues, such as the pancreas, also express PGC-1a.
HPSCs were maintained on irradiated mouse embryonic feeder cells in hESC media consisting of DEME/F12 (50:50; Gibco) supplemented with 20% Knock-out serum replacement (KSR) as described previously^44. Prior to the generation of embryoid bodies (EBs), hESCs were passaged onto Matrigel™-coated plates for 1 day to deplete the population of feeder cells. […] At day 1, the EBs were harvested and re-cultured in induction medium A that consisted of StemPRO-34® supplemented with glutamine (2 mM), ascorbic acid ([…]; Sigma), MTG ([…]; Sigma), basic fibroblast growth factor (bFGF; 2.5 ng/ml), activin A (100 ng/ml), Wnt3a (25 ng/ml) and BMP4 (0.25 ng/ml) for 3 days. On day 4, the EBs were harvested and re-cultured in StemPRO-34® supplemented with bFGF (10 ng/ml), activin A (100 ng/ml), Wnt3a (25 ng/ml) and BMP4 (0.25 ng/ml) (medium B). EBs were harvested at day 6, dissociated to single cells and the cells cultured for 2 days on Matrigel™-coated 12 well plates at a concentration of 4×10^5 cells in media B without Wnt3A and with activin A at a concentration of 50 ng/ml. At day 8, medium B was replaced with hepatic specification media that consisted of Iscove's Modified Dulbecco's Medium (IMDM) supplement with 1% vol/vol B27 supplement (Invitrogen: A11576SA), ascorbic acid, MTG, FGF10 (50 ng/ml) (from day 8 to day 10), bFGF (20 ng/ml) (from day 10 to day 14), and BMP4 (50 ng/ml). Media was changed every 2 days from day 8 to day 14. To promote maturation of HES2-derived hepatic cells, they were cultured in maturation media A for 12 days. Maturation media A consisted of IMDM with 1% vol/vol B27 supplement, ascorbic acid, Glutamine, MTG, Hepatocyte growth factor (HGF) (20 ng/ml), Dexamethasone Dex) (40 ng/ml) and Oncostatin M (20 ng/ml). Aggregates were generated from the population at day 26 of culture. To generate aggregates the cells were dissociated with collagenase and TrypleLE and then cultured in six well ultra-low cluster dishes at a concentration of 6×10^5 cells per well in maturation medium A supplemented with Rho-kinase inhibitor and 0.1% BSA. Aggregates were maintained under these conditions until day 32, with media changes every 3 days. […] Media was changed every 3 days. To generate hepatocyte like cells from H9, H1 and IPS cells, the following changes were made to the hepatic specification media. […] All cytokines were human and purchased from R&D Systems, unless stated otherwise. EB and monolayer cultures were maintained in a 5% CO2, 5% O2, 90% N2 environment. Aggregation cultures were maintained in a 5% CO2 ambient air environment.
Total RNA was prepared with RNAqueous® Micro Kit (Ambion) and treated with RNase-free DNase (Ambion). 500 ng to 1 μg RNA was reverse transcribed into cDNA using random hexamers and Oligo(dT) with Superscript® III Reverse Transcriptase (Invitrogen). qPCR was performed on a MasterCycler® ep realplex (Eppendorf) using A QuentiFast SYBR Green PCR Kit (Quiagen) as described previously^45. Expression levels were normalized to the housekeeping gene TATA box binding protein (TBP). […] Total human adult and fetal liver RNA was purchased from Clontech. Two primary hepatocyte RNA samples were provided by Dr Stephen C. […] Two primary hepatocyte samples were cultured for two day and were harvested.

[2] = system: hESC-derived hepatic aggregates; assay: Intracellular flow cytometry of AFP+ and ALB+ cells in hepatic aggregates; format: cell-based, human; settings: day 44 aggregates
Description: The proportion of ALB positive cells, on the other hand, was higher in the cAMP-treated population (89.5+/−5.6% vs 82.3+/−3.0%, P<0.05 (mean+/−SD, n=3).
Flow cytometric analyses were performed as described previously^45. For cell surface markers, staining was carried out in PBS with 10% FCS. For intracellular proteins, staining was performed on cells fixed with 4% paraformaldehyde (Electron Microscopy Science, Hatfield, PA, USA) in PBS. Cells were permeabilized with 90% ice-cold methanol for 20 minutes for Sox17 and FoxA2 staining as previously described^45. Albumin and alpha-fetoprotein staining was performed in PBS with 10% FCS and 0.5% saponin (Sigma). Stained cells were analyzed using an LSRII flow cytometer (BD).

[3] = system: UDP-glucuronosyltransferase (UGT); assay: Total UGT activity, 4-MU glucuronidation; format: in vitro ADME, human; settings: cAMP-treated aggregates versus primary cultured hepatocytes
CYP1A2 = biological target: T1, CYP1A2 (Homo sapiens, UniProt P05177); assay: CYP1A2 activity, phenacetin metabolism by HPLC; settings: 8-Br-cAMP-treated cells versus primary cultured hepatocytes
T1 sequence (P05177 1-516): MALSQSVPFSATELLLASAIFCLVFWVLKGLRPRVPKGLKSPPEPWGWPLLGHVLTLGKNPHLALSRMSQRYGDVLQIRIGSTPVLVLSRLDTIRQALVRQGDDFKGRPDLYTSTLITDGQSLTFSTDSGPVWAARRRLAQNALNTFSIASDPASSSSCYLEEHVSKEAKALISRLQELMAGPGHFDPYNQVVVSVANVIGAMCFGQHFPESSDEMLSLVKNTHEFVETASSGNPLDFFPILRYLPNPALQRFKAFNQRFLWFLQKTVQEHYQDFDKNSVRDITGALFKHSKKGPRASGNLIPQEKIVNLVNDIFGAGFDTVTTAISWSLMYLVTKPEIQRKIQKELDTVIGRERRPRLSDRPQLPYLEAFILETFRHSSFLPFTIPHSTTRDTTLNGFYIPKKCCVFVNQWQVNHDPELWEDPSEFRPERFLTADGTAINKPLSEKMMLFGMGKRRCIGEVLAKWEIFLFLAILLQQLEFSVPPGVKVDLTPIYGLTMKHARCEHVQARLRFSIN

[4] = hepatic aggregates, day 32 to 44
[5] = hepatic aggregates, day 32 to 44, average

Nc1ncnc2c1nc(Br)n2[C@@H]1O[C@@H]2COP(=O)(O)O[C@H]2[C@H]1O [8-Br-cAMP, 8-bromoadenosine-3′5″-cyclic monophosphate]
expression of CYP1A2 and CYP3A4 [1]: little increase
increase in expression of CYP1A2 [1]: 18 fold
increase in expression of CYP2B6 [1]: 4.7 fold
increase in expression of CYP3A4 [1]: 2.5 fold
induction of UGT1A1 expression ([1]; HES2-derived aggregates, day 44, relative to non-treated): 11 fold
expression of PGC1-a ([1]; hESC-derived insulin positive pancreatic cells): not induced
expression level of AFP [1, 4]: downregulated
expression level of ALB [1, 4]: downregulated
expression of PGC1-a [1, 4]: 15 fold
expression of G6P [1, 5]: 25 fold
expression of TAT [1, 5]: 33 fold
proportion of AFP+ cells [2]: 26% and 34.5+/−12.4%
proportion of ALB+ cells [2]: 89.5+/−5.6%
UGT activity [3]: higher than that of primary cultured hepatocytes
O-deethylation of phenacetin (CYP1A2 activity) (CYP1A2): as high as primary cultured hepatocytes
